Source: US20230041621A1, “SSTR5 ANTAGONISTS” (Kallyope, Inc., priority 2019, published 2023)

experiment: Oral bioavailability after oral dosing in rat; conditions: in vivo, Sprague Dawley rats, IV 1 mg/kg, PO 5 mg/kg, IV vehicle 5% DMSO + 30% PEG400 + 65% water, PO vehicle 0.5% methyl cellulose in water
Description: Oral bioavailability of the compounds was determined in Sprague Dawley rats. The table below summarizes the results. Each compound was dosed intravenously (IV) at 1 mg/kg and orally (PO) 5 mg/kg using the respective vehicles listed below. The compounds display low (<10%) oral bioavailability (F %).

bioavailability	Compound
4.6%	CCOc1cc(-c2ccc(F)cc2)c(C2CC2)cc1CN1CCC2(CC1)CN(c1ccc(S(=O)(=O)O)cc1)C(=O)O2 [Compound 1, 4-(8-((2-cyclopropyl-5-ethoxy-4′-fluoro-[1,1′-biphenyl]-4-yl)methyl)-2-oxo-1-oxa-3,8-diazaspiro[4.5]decan-3-yl)benzenesulfonic acid]
2.1%	CCOc1cc(-c2ccc(F)cc2)c(C2CC2)cc1CN1CCC2(CC1)CC(=O)N(c1ccc(S(=O)(=O)O)cc1)C2 [Compound 2, 4-(8-((2-cyclopropyl-5-ethoxy-4′-fluoro-[1,1′-biphenyl]-4-yl)methyl)-3-oxo-2,8-diazaspiro[4.5]decan-2-yl)benzenesulfonic acid]
1.2%	CCOc1cc(-c2ccc(F)cn2)c(C2CC2)cc1CN1CCC2(CC1)CN(c1ccc(S(=O)(=O)O)cc1)C(=O)O2 [Compound 3, 4-(8-(5-cyclopropyl-2-ethoxy-4-(5-fluoropyridin-2-yl)benzyl)-2-oxo-1-oxa-3,8-diazaspiro[4.5]decan-3-yl)benzenesulfonic acid]
